PubChem BioAssay (NCI)
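96-well plates; 48 h exposure; 5 concentrations. Endpoints by linear interpolation between flanking doses. Not reached: highest tested concentration assigned. GI50 marks 50% less growth. TGI: total growth inhibition.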

Legend:
Test in all cases: NCI-60 cell line screen, 48 h
[1] = test system: HCC-2998 colon
[2] = test system: T-47D breast
[3] = test system: NCI-H23 lung
[4] = test system: PC-3 prostate
[5] = test system: KM12 colon
[6] = test system: MOLT-4 leukemia
[7] = test system: CAKI-1 renal
[8] = test system: A498 renal
[9] = test system: SF-295 CNS
[10] = test system: M14 melanoma
[11] = test system: MCF7 breast
[12] = test system: OVCAR-4 ovarian
[13] = test system: SN12C renal
[14] = test system: MDA-MB-231 breast
[15] = test system: RXF 393 renal
[16] = test system: DU-145 prostate
[17] = test system: SF-539 CNS
[18] = test system: SNB-19 CNS
[19] = test system: BT-549 breast
[20] = test system: SF-268 CNS
[21] = test system: HOP-92 NSCLC
[22] = test system: NCI-H226 lung
[23] = test system: SR leukemia
[24] = test system: SK-MEL-2 melanoma
[25] = test system: SK-MEL-28 melanoma
[26] = test system: NCI-H460 lung
[27] = test system: HS 578T breast
[28] = test system: UACC-257 melanoma
[29] = test system: MDA-MB-435
[30] = test system: OVCAR-5 ovarian
[31] = test system: NCI/ADR-RES ovarian
[32] = test system: SW-620 colon
[33] = test system: IGROV1 ovarian
[34] = test system: HT29 colon
[35] = test system: HCT-15 colon
[36] = test system: SNB-75 CNS
[37] = test system: 786-0 renal
[38] = test system: OVCAR-8 ovarian
[39] = test system: SK-MEL-5 melanoma
[40] = test system: HL-60(TB) leukemia
[41] = test system: A549 NSCLC
[42] = test system: CCRF-CEM leukemia
[43] = test system: OVCAR-3 ovarian
[44] = test system: LOX IMVI melanoma
[45] = test system: UO-31 renal
[46] = test system: U251 CNS
[47] = test system: TK-10 renal
[48] = test system: K-562 leukemia
[49] = test system: NCI-H522 lung
[50] = test system: ACHN renal
[51] = test system: MALME-3M melanoma
[52] = test system: HCT-116 colon
[53] = test system: UACC-62 melanoma
[54] = test system: HOP-62 NSCLC
[55] = test system: EKVX NSCLC
[56] = test system: RPMI-8226 leukemia
[57] = test system: COLO 205 colon
[58] = test system: SK-OV-3 ovarian

Compound `NC(=O)c1c(NC(=O)c2cccs2)sc2c1CCC(=O)C2` has a GI50 [1] of 4.13 µM, a TGI [1] of 48.9 µM and a GI50 [2] of 2.05 µM. The TGI [2] was over 100 µM, the GI50 [3] was 1.83 µM and the TGI [3] was 7.34 µM. For the same compound, the GI50 [4] was 0.627 µM, the TGI [4] was over 100 µM and the GI50 [5] was 2.18 µM. It also gave a TGI [5] of 9.52 µM, a GI50 [6] of 2.28 µM and a TGI [6] of 16.1 µM. For the same compound, the GI50 [7] was 2.65 µM, the TGI [7] was over 100 µM and the GI50 [8] was 6 µM. The TGI [8] was 52.9 µM, the GI50 [9] was 2.86 µM and the TGI [9] was 9.42 µM. The GI50 [10] was 3.73 µM, the TGI [10] was over 100 µM and the GI50 [11] was 2.48 µM. For the same compound, the TGI [11] was 18.7 µM, the GI50 [12] was 0.761 µM and the TGI [12] was 2.75 µM. The GI50 [13] was 2.95 µM, the TGI [13] was over 100 µM and the GI50 [14] was 1.99 µM. It also gave a TGI [14] of 6.28 µM, a GI50 [15] of 2.05 µM and a TGI [15] of 8.49 µM. It also gave a GI50 [16] of 4.13 µM, a TGI [16] of over 100 µM and a GI50 [17] of 1.54 µM. For the same compound, the TGI [17] was 5.06 µM, the GI50 [18] was 3.49 µM and the TGI [18] was over 100 µM. For the same compound, the GI50 [19] was 2.08 µM, the TGI [19] was 8.41 µM and the GI50 [20] was 3.21 µM. For the same compound, the TGI [20] was over 100 µM, the GI50 [21] was 1.38 µM and the TGI [21] was 4 µM. The GI50 [22] was 3.96 µM, the TGI [22] was 48.3 µM and the GI50 [23] was 1.43 µM. For the same compound, the TGI [23] was over 100 µM, the GI50 [24] was 2.71 µM and the TGI [24] was 7.78 µM. It also gave a GI50 [25] of 4.52 µM, a TGI [25] of over 100 µM and a GI50 [26] of 2.98 µM. For the same compound, the TGI [26] was over 100 µM, the GI50 [27] was 3.27 µM and the TGI [27] was over 100 µM. It also gave a GI50 [28] of 2.73 µM, a TGI [28] of 7.08 µM and a GI50 [29] of 2.95 µM. The TGI [29] was 10.6 µM, the GI50 [30] was 2.68 µM and the TGI [30] was 9.23 µM. For the same compound, the GI50 [31] was 2.5 µM, the TGI [31] was 26.4 µM and the GI50 [32] was 0.809 µM. It also gave a TGI [32] of 16.8 µM, a GI50 [33] of 1.98 µM and a TGI [33] of 36.7 µM. It also gave a GI50 [34] of 3.12 µM, a TGI [34] of over 100 µM and a GI50 [35] of 1.65 µM. The TGI [35] was 17.9 µM, the GI50 [36] was 1.7 µM and the TGI [36] was 9.05 µM. For the same compound, the GI50 [37] was 4.34 µM, the TGI [37] was over 100 µM and the GI50 [38] was 3.02 µM. The TGI [38] was over 100 µM, the GI50 [39] was 1.62 µM and the TGI [39] was 3.19 µM. For the same compound, the GI50 [40] was 2.45 µM, the TGI [40] was 7.13 µM and the GI50 [41] was 3.5 µM. For the same compound, the TGI [41] was over 100 µM, the GI50 [42] was 0.458 µM and the TGI [42] was over 100 µM. The GI50 [43] was 1.8 µM, the TGI [43] was 5.93 µM and the GI50 [44] was 2.44 µM. It also gave a TGI [44] of 14.2 µM, a GI50 [45] of 1.58 µM and a TGI [45] of 10.1 µM. For the same compound, the GI50 [46] was 2.28 µM, the TGI [46] was over 100 µM and the GI50 [47] was 6.33 µM. For the same compound, the TGI [47] was over 100 µM, the GI50 [48] was 0.736 µM and the TGI [48] was over 100 µM. For the same compound, the GI50 [49] was 0.892 µM, the TGI [49] was 7.92 µM and the GI50 [50] was 2.16 µM. The TGI [50] was 8.88 µM, the GI50 [51] was 1.85 µM and the TGI [51] was 4.58 µM. For the same compound, the GI50 [52] was 1.7 µM, the TGI [52] was 13.7 µM and the GI50 [53] was 0.811 µM. The TGI [53] was 4.43 µM, the GI50 [54] was 3.65 µM and the TGI [54] was over 100 µM. The GI50 [55] was 2.54 µM and the TGI [55] was 87.1 µM.

`Cc1ccc(C[As+](c2ccccc2)(c2ccccc2)c2ccccc2)cc1` gave a GI50 [1] of 0.645 µM, a TGI [1] of 19.6 µM and a GI50 [2] of 0.125 µM. For the same compound, the TGI [2] was 10.3 µM, the GI50 [3] was 1.02 µM and the TGI [3] was 9.36 µM. It also gave a GI50 [4] of 0.409 µM, a TGI [4] of 10.4 µM and a GI50 [5] of 0.385 µM. It also gave a TGI [5] of 4.46 µM, a GI50 [6] of 2.41 µM and a TGI [6] of 13.6 µM. It also gave a GI50 [7] of 8.85 µM, a TGI [7] of 43.9 µM and a GI50 [8] of 0.581 µM. For the same compound, the TGI [8] was 5.07 µM, the GI50 [9] was 0.753 µM and the TGI [9] was 4.41 µM. For the same compound, the GI50 [10] was 0.704 µM, the TGI [10] was 10.8 µM and the GI50 [11] was 0.621 µM. It also gave a TGI [11] of 17.2 µM, a GI50 [12] of 0.778 µM and a TGI [12] of over 100 µM. For the same compound, the GI50 [13] was 1.25 µM, the TGI [13] was 12.1 µM and the GI50 [14] was 1.46 µM. For the same compound, the TGI [14] was 19.6 µM, the GI50 [15] was 1.62 µM and the TGI [15] was 11.4 µM. For the same compound, the GI50 [16] was 1.36 µM, the TGI [16] was over 56.8 µM and the GI50 [17] was 1.71 µM. For the same compound, the TGI [17] was 28.3 µM, the GI50 [18] was 0.978 µM and the TGI [18] was over 76.8 µM. For the same compound, the GI50 [19] was 0.392 µM, the TGI [19] was 8.26 µM and the GI50 [20] was 1.08 µM. It also gave a TGI [20] of over 42.2 µM, a GI50 [21] of 0.158 µM and a TGI [21] of 0.961 µM. The GI50 [22] was 1.64 µM, the TGI [22] was over 100 µM and the GI50 [23] was 0.797 µM. For the same compound, the TGI [23] was 6.07 µM, the GI50 [24] was 0.887 µM and the TGI [24] was 4.34 µM. The GI50 [25] was 0.927 µM, the TGI [25] was 18.5 µM and the GI50 [26] was 0.674 µM. The TGI [26] was 8.36 µM, the GI50 [27] was 2.19 µM and the TGI [27] was over 48.8 µM. It also gave a GI50 [28] of 0.279 µM, a TGI [28] of 1.75 µM and a GI50 [29] of 0.552 µM. For the same compound, the TGI [29] was 6.34 µM, the GI50 [30] was 1.74 µM and the TGI [30] was over 87.2 µM. The GI50 [31] was 49.1 µM, the TGI [31] was over 100 µM and the GI50 [56] was 0.218 µM. It also gave a TGI [56] of 3.24 µM, a GI50 [32] of 0.99 µM and a TGI [32] of over 38.1 µM. For the same compound, the GI50 [33] was 1.17 µM, the TGI [33] was 25.1 µM and the GI50 [34] was 0.313 µM. It also gave a TGI [34] of 11.5 µM, a GI50 [35] of 13 µM and a TGI [35] of over 100 µM. It also gave a GI50 [36] of 1.1 µM, a TGI [36] of 10.3 µM and a GI50 [37] of 3.15 µM. The TGI [37] was over 46.4 µM, the GI50 [38] was 0.599 µM and the TGI [38] was 15.3 µM. The GI50 [39] was 0.23 µM, the TGI [39] was 0.719 µM and the GI50 [40] was 0.286 µM. It also gave a TGI [40] of 1.48 µM, a GI50 [41] of 0.588 µM and a TGI [41] of 35.8 µM. The GI50 [42] was 1.08 µM, the TGI [42] was 55 µM and the GI50 [43] was 0.611 µM. It also gave a TGI [43] of 13.9 µM, a GI50 [44] of 1.41 µM and a TGI [44] of 6.85 µM. The GI50 [45] was 12.4 µM, the TGI [45] was 97.4 µM and the GI50 [46] was 0.58 µM. The TGI [46] was 15.9 µM, the GI50 [47] was 2.01 µM and the TGI [47] was 20.5 µM. The GI50 [48] was 0.466 µM, the TGI [48] was 21.9 µM and the GI50 [49] was 0.649 µM. It also gave a TGI [49] of 8.38 µM, a GI50 [57] of 0.412 µM and a TGI [57] of 2.45 µM. The GI50 [50] was 3.66 µM, the TGI [50] was over 100 µM and the GI50 [51] was 0.297 µM. For the same compound, the TGI [51] was 11.6 µM, the GI50 [52] was 0.645 µM and the TGI [52] was over 36.2 µM. The GI50 [53] was 0.371 µM, the TGI [53] was 12.6 µM and the GI50 [54] was 1.5 µM. It also gave a TGI [54] of 32.9 µM, a GI50 [58] of 1.82 µM and a TGI [58] of over 23.5 µM.
